Laboratory results: PubChem BioAssay AID226 (DTP/NCI, 2004)
“And” between values parts separate entries of the source, which are not always exact repeats. Equal entries are not always repeated. Toxic doses and inconclusive results are not listed.

Test system: B6C3F1 mice, intracerebral ependymoblastoma, median survival T/C
Experiment: NCI In Vivo Anticancer Drug Screen. Data for tumor model Ependymoblastoma (intracerebral) in B6C3F1 mice
Details: endpoint: median survival time, higher = longer survival
Procedure: The antitumor activity of compounds was measured in mice bearing transplantable tumors. Survival or tumor size were measured and the results are expressed as the measurement made in the treated group (T) divided by the measurement made in the vehicle treated control group (C). The tumor model used in this assay is Ependymoblastoma (intracerebral) in B6C3F1 mice

O=NN(CCCl)C(=O)NC1CCCCC1
T/C (dose: 1.5 mg/kg/injection, schedule: Q01DX009 (ip), vehicle: Klucel (hydroxypropylcellulose) (HPC)): 110 % of control | T/C (dose: 2.4 mg/kg/injection, schedule: Q01DX001 (ip), vehicle: other): 98 % of control | T/C (dose: 4.0 mg/kg/injection, schedule: Q01DX009 (ip), vehicle: Klucel (hydroxypropylcellulose) (HPC)): 241 % of control | T/C (dose: 4.7 mg/kg/injection, schedule: Q01DX001 (ip), vehicle: other): 102 % of control | T/C (dose: 5.18 mg/kg/injection, schedule: Q01DX005 (ip), vehicle: Klucel (hydroxypropylcellulose) (HPC)): 154 % of control | T/C (dose: 6.0 mg/kg/injection, schedule: Q01DX009 (ip), vehicle: Klucel (hydroxypropylcellulose) (HPC)): 213 % of control | T/C (dose: 8.0 mg/kg/injection, schedule: Q01DX009 (ip), vehicle: Klucel (hydroxypropylcellulose) (HPC)): 241 % of control | T/C (dose: 8.64 mg/kg/injection, schedule: Q01DX005 (ip), vehicle: Klucel (hydroxypropylcellulose) (HPC)): 244 % of control | T/C (dose: 9.5 mg/kg/injection, schedule: Q01DX001 (ip), vehicle: other): 121 % of control | T/C (dose: 12.0 mg/kg/injection, schedule: Q01DX009 (ip), vehicle: Klucel (hydroxypropylcellulose) (HPC)): 326 % of control | T/C (dose: 13.0 mg/kg/injection, schedule: Q01DX001 (ip), vehicle: Klucel (hydroxypropylcellulose) (HPC)): 181 % of control | T/C (dose: 14.4 mg/kg/injection, schedule: Q01DX005 (ip), vehicle: Klucel (hydroxypropylcellulose) (HPC)): 357 % of control | T/C (dose: 16.0 mg/kg/injection, schedule: Q01DX009 (ip), vehicle: Klucel (hydroxypropylcellulose) (HPC)): 104 % of control | T/C (dose: 18.9 mg/kg/injection, schedule: Q01DX001 (ip), vehicle: other): 171 % of control | T/C (dose: 21.6 mg/kg/injection, schedule: Q01DX001 (ip), vehicle: Klucel (hydroxypropylcellulose) (HPC)): 193 % of control | T/C (dose: 24.0 mg/kg/injection, schedule: Q01DX005 (ip), vehicle: Klucel (hydroxypropylcellulose) (HPC)): 357 % of control | T/C (dose: 24.0 mg/kg/injection, schedule: Q01DX009 (ip), vehicle: Klucel (hydroxypropylcellulose) (HPC)): 315 % of control | T/C (dose: 32.0 mg/kg/injection, schedule: Q01DX001 (ip), vehicle: saline + alcohol): 233 % of control | T/C (dose: 36.0 mg/kg/injection, schedule: Q01DX001 (ip), vehicle: Klucel (hydroxypropylcellulose) (HPC)): 363 % of control | T/C (dose: 37.8 mg/kg/injection, schedule: Q01DX001 (ip), vehicle: other): 331 % of control | T/C (dose: 40.0 mg/kg/injection, schedule: Q01DX005 (ip), vehicle: Klucel (hydroxypropylcellulose) (HPC)): 154 % of control | T/C (dose: 60.0 mg/kg/injection, schedule: Q01DX001 (ip), vehicle: Klucel (hydroxypropylcellulose) (HPC)): 363 % of control | T/C (dose: 64.0 mg/kg/injection, schedule: Q01DX001 (ip), vehicle: saline + alcohol): 324 % of control | T/C (dose: 100.0 mg/kg/injection, schedule: Q01DX001 (ip), vehicle: Klucel (hydroxypropylcellulose) (HPC)): 363 % of control | T/C (dose: 128.0 mg/kg/injection, schedule: Q01DX001 (ip), vehicle: saline + alcohol): 90 % of control

S=P(N1CC1)(N1CC1)N1CC1.[Cl-].[Cl-].[NH2-].[NH2-].[Pt+4]
T/C (dose: 3.0 mg/kg/injection, schedule: Q01DX005 (ip), vehicle: dextrose): 122 % of control | T/C (dose: 6.0 mg/kg/injection, schedule: Q01DX005 (ip), vehicle: dextrose): 155 % of control

Nc1nc(SCc2ccccc2Cl)c2ncn(C3OC(CO)C(O)C3O)c2n1 (stereo unspecified)
T/C (dose: 12.5 mg/kg/injection, schedule: Q01DX005 (ip), vehicle: Klucel (hydroxypropylcellulose) (HPC)): 103 % of control and 104 % of control | T/C (dose: 25.0 mg/kg/injection, schedule: Q01DX005 (ip), vehicle: Klucel (hydroxypropylcellulose) (HPC)): 98 % of control | T/C (dose: 50.0 mg/kg/injection, schedule: Q01DX005 (ip), vehicle: Klucel (hydroxypropylcellulose) (HPC)): 110 % of control and 119 % of control

O=NN(CCCl)C(=O)NCCCl
T/C (dose: 0.5 mg/kg/injection, schedule: Q01DX009 (ip), vehicle: saline with Tween-80): 114 % of control | T/C (dose: 1.0 mg/kg/injection, schedule: Q01DX001 (ip), vehicle: saline): 96 % of control and 105 % of control | T/C (dose: 1.0 mg/kg/injection, schedule: Q01DX005 (ip), vehicle: saline + alcohol): 100 % of control and 115 % of control | T/C (dose: 1.0 mg/kg/injection, schedule: Q01DX005 (ip), vehicle: saline with Tween-80): 99 % of control and 103 % of control | T/C (dose: 1.0 mg/kg/injection, schedule: Q01DX009 (ip), vehicle: saline with Tween-80): 118 % of control | T/C (dose: 2.0 mg/kg/injection, schedule: Q01DX001 (ip), vehicle: saline): 96 % of control and 105 % of control | T/C (dose: 2.0 mg/kg/injection, schedule: Q01DX005 (ip), vehicle: saline + alcohol): 103 % of control and 107 % of control and 119 % of control | T/C (dose: 2.0 mg/kg/injection, schedule: Q01DX005 (ip), vehicle: saline with Tween-80): 93 % of control and 116 % of control | T/C (dose: 2.0 mg/kg/injection, schedule: Q01DX009 (ip), vehicle: saline with Tween-80): 153 % of control | T/C (dose: 2.5 mg/kg/injection, schedule: Q01DX001 (ip), vehicle: saline with Tween-80): 109 % of control | T/C (dose: 4.0 mg/kg/injection, schedule: Q01DX001 (ip), vehicle: saline): 106 % of control and 111 % of control | T/C (dose: 4.0 mg/kg/injection, schedule: Q01DX005 (ip), vehicle: saline + alcohol): 170 % of control | T/C (dose: 4.0 mg/kg/injection, schedule: Q01DX009 (ip), vehicle: saline with Tween-80): 241 % of control | T/C (dose: 5.0 mg/kg/injection, schedule: Q01DX001 (ip), vehicle: alcohol): 113 % of control | T/C (dose: 5.0 mg/kg/injection, schedule: Q01DX001 (ip), vehicle: saline with Tween-80): 113 % of control | T/C (dose: 7.5 mg/kg/injection, schedule: Q01DX001 (ip), vehicle: saline + alcohol): 107 % of control | T/C (dose: 8.0 mg/kg/injection, schedule: Q01DX001 (ip), vehicle: saline): 108 % of control and 110 % of control | T/C (dose: 8.0 mg/kg/injection, schedule: Q01DX005 (ip), vehicle: saline + alcohol): 204 % of control and 218 % of control | T/C (dose: 8.0 mg/kg/injection, schedule: Q01DX005 (ip), vehicle: saline with Tween-80): 171 % of control and 240 % of control | T/C (dose: 8.0 mg/kg/injection, schedule: Q01DX009 (ip), vehicle: saline with Tween-80): 106 % of control | T/C (dose: 10.0 mg/kg/injection, schedule: Q01DX001 (ip), vehicle: saline with Tween-80): 99 % of control | T/C (dose: 10.0 mg/kg/injection, schedule: Q01DX005 (ip), vehicle: saline with Tween-80): 214 % of control | T/C (dose: 16.0 mg/kg/injection, schedule: Q01DX001 (ip), vehicle: saline): 150 % of control and 163 % of control | T/C (dose: 16.0 mg/kg/injection, schedule: Q01DX005 (ip), vehicle: saline + alcohol): 376 % of control | T/C (dose: 16.0 mg/kg/injection, schedule: Q01DX005 (ip), vehicle: saline with Tween-80): 105 % of control | T/C (dose: 20.0 mg/kg/injection, schedule: Q01DX001 (ip), vehicle: alcohol): 167 % of control | T/C (dose: 20.0 mg/kg/injection, schedule: Q01DX001 (ip), vehicle: saline with Tween-80): 117 % of control | T/C (dose: 24.0 mg/kg/injection, schedule: Q01DX001 (ip), vehicle: saline): 300 % of control | T/C (dose: 30.0 mg/kg/injection, schedule: Q01DX001 (ip), vehicle: saline + alcohol): 177 % of control | T/C (dose: 32.0 mg/kg/injection, schedule: Q01DX001 (ip), vehicle: saline): 196 % of control and 226 % of control | T/C (dose: 40.0 mg/kg/injection, schedule: Q01DX001 (ip), vehicle: alcohol): 215 % of control | T/C (dose: 40.0 mg/kg/injection, schedule: Q01DX001 (ip), vehicle: saline with Tween-80): 112 % of control | T/C (dose: 60.0 mg/kg/injection, schedule: Q01DX001 (ip), vehicle: saline + alcohol): 359 % of control | T/C (dose: 64.0 mg/kg/injection, schedule: Q01DX001 (ip), vehicle: saline): 95 % of control

CCN(CC)CCOc1ccc(/C(=C(\Cl)c2ccccc2)c2ccccc2)cc1
T/C (dose: 8.0 mg/kg/injection, schedule: Q01DX005 (ip), vehicle: saline): 101 % of control and 106 % of control | T/C (dose: 16.0 mg/kg/injection, schedule: Q01DX005 (ip), vehicle: saline): 93 % of control and 100 % of control | T/C (dose: 32.0 mg/kg/injection, schedule: Q01DX005 (ip), vehicle: saline): 92 % of control and 103 % of control | T/C (dose: 64.0 mg/kg/injection, schedule: Q01DX005 (ip), vehicle: saline): 101 % of control and 104 % of control

COc1cccc2c1C(=O)c1c(O)c3c(c(O)c1C2=O)C[C@@](O)(C(C)=O)C[C@@H]3OC1CC(N)C(O)C(C)O1 (stereo partly specified)
T/C (dose: 0.12 mg/kg/injection, schedule: Q01DX005 (ip), vehicle: water): 105 % of control | T/C (dose: 0.25 mg/kg/injection, schedule: Q01DX005 (ip), vehicle: water): 102 % of control | T/C (dose: 0.5 mg/kg/injection, schedule: Q01DX005 (ip), vehicle: water): 93 % of control and 105 % of control | T/C (dose: 1.0 mg/kg/injection, schedule: Q01DX005 (ip), vehicle: water): 92 % of control and 93 % of control | T/C (dose: 2.0 mg/kg/injection, schedule: Q01DX005 (ip), vehicle: water): 104 % of control

CCCCC(=O)OCC1OC(n2cnc3c(=S)nc[nH]c32)C(OC(=O)CCCC)C1OC(=O)CCCC (stereo unspecified)
T/C (dose: 25.0 mg/kg/injection, schedule: Q01DX005 (ip), vehicle: saline with Tween-80): 116 % of control | T/C (dose: 50.0 mg/kg/injection, schedule: Q01DX005 (ip), vehicle: saline with Tween-80): 99 % of control | T/C (dose: 100.0 mg/kg/injection, schedule: Q01DX005 (ip), vehicle: saline with Tween-80): 103 % of control
